The test system of one assay is P. AERUGINOSA H309. Put plainly: microbe, parasite or virus in culture. It is filed as cell-based, Pseudomonas aeruginosa. On the procedure: (§1) Briefly, cells were grown overnight at 37° C. in LB-S (Luria broth without any salt supplement) and diluted one in 10,000 in the same medium to give concentrations of about 10^4 to 10^5 CFU/ml. The broth dilutions were set up in a 96 well microtiter plate by putting 200 μl of LB-S containing the initial concentration of antibiotic or compound in column 1 and 100 μl of the same medium in columns 2-12. The compounds were diluted by taking 100 μl of broth from column 1 and mixing it with column 2, resulting in a one in two dilution. This was continued to column 10. Finally, 10 μl of bacteria were pipetted into columns 1-11, and the plates incubated overnight at 37° C. The next day the plates were scored for growth in the wells, and the MIC determined.

In the next assay the test system is P. aeruginosa. Put plainly: microbe, parasite or virus in culture. It is filed as cell-based, Pseudomonas aeruginosa. The protocol:
as §1, with “The minimum inhibitory concentrations of (MIC) of CEME, CEMA and melittin were determined for a number of different bacteria (Table 2). Briefly,” for “Briefly,”
Bacteria included the Bort strain of E. coli (Bortolussi, et al., Inf. Immun., 25:293, 1979) that was originally derived from a case of neonatal meningitis, and which is therefore considered a relevant pathogenic strain to study, and the 0111:B4 strain of E. coli (kindly provided by Dr. D. Morrison) which is a standard source of endotoxin. (Kelly, et al., Inf. Immun., 59:4491, 1991). In addition, P. aeruginosa PA01 strain H103, P. aeruginosa M2, P. aeruginosa K799, Eschericha coli UB 1005, Enterobacter cloacae 218S, Salmonella typhimurium MS7953s, Klebsiella pneumoniae ATCC 13883, Xanthomonas maltophilia ATCC 13637, and Acinetobacter calcoacetious 8193 were employed. LPS was obtained from E. coli Bort by the technique of Westphal and Jann, (Westphal, et al., Acad. Press, Inc. NY., 5:83) and from P. aeruginosa H103 by the method of Darveau and Hancock, (Darveau, et al., J. Bacteriol, 155:831, […]). E. coli 0111:B4 LPS was purchased from Sigma.

Assay [1] deals with P. aeruginosa H309 or E. cloacae 218R1. It is filed as cell-based, Pseudomonas aeruginosa; Enterobacter cloacae. Particulars: 10 μM NPN. From the text:
The second assay determined membrane permeability by the ability of 1-N-phenylnaphthylamine(NPN), a small fluorescent probe, to insert itself into the membrane. Normally, very little NPN can penetrate the outer membrane, but in the presence of a membrane permeabilizer it can insert into the hydrophobic membrane resulting in an increase in fluorescence (FIGS. 7 and 8). This N-phenylnaphthylamine uptake assay was previously described by Loh, et al., Antimicrobial Agents and Chemo., 26:546, 1984. Cells were prepared exactly the same as for the lysozyme lysis assay. 1-N-phenylnaphthylamine(NPN) was dissolved in acetone at a concentration of 500 μM. NPN fluorescence was measured in a Perkin-Elmer 650-10S fluorescent spectrophotometer using excitation and emission wavelengths set to 350 nm and 420 nm respectively, with slit widths of 5 nm. The assay was standardized by adding 20 μl of NPN (final concentration of 10 μM) and 10 μl of 0.64 mg/ml of polymyxin B (final concentration of 6.4 μg/ml) into 1 ml of cells, and adjusting the resulting fluorescence to read 90% deflection (90 arbitrary units). Various compounds were tested by adding 10 μl of different concentrations to a cuvette containing 1 ml of cells and 10 μM NPN. Permeabilizing activity was designated as the total fluorescence minus the fluorescence due to NPN alone. Following the fluorescence measurement, the OD600 of the cells was taken to ensure no significant cell lysis had occurred.

The test system of the next assay is S. aureus. Description: microbe, parasite or virus in culture. It is filed as cell-based, Staphylococcus aureus. The protocol: as §1, with “The minimum inhibitory concentrations of (MIC) of CEME, CEMA and melittin were determined for a number of different bacteria (Table 2). Briefly,” for “Briefly,”
Assay [2] relates to P. aeruginosa H309 Whole Cells. Description: DPx binding inhibition using whole cells. The settings on record: DPx at 90-100% binding saturation, average of at least three trials. The arrangement: species or system Pseudomonas aeruginosa. On the procedure: For DPx binding inhibition assays using whole cells instead of purified LPS, H309 cells were prepared the same way as for the lysozyme lysis assay. The assay consisted of 10 μl of cells at an OD600 of 0.5, 990 μl of 5 mM HEPES pH 7.2 and 5 mM KCN, and the concentration of DPx that gave 90-100% binding saturation. […] Compounds were titrated in, and I50 values were determined as described above.

Where [3] appears, read: strain H188, Antibiotic sensitive.
Setting [4] is: strain RN4220, Methicillin sensitive.
The mark [5] stands for this setting: strain SAP0017, Methicillin resistant.

≈ marks a conversion by molar mass, not a printed value.

As to `CC[C@H](C)[C@H](NC(=O)CNC(=O)[C@@H](NC(=O)[C@H](CCCCN)NC(=O)[C@H](CCCCN)NC(=O)[C@H](Cc1ccccc1)NC(=O)[C@H](CC(C)C)NC(=O)[C@H](CCCCN)NC(=O)[C@H](Cc1c[nH]c2ccccc12)NC(=O)[C@@H](N)CCCCN)[C@@H](C)CC)C(=O)NCC(=O)N[C@@H](C)C(=O)N[C@H](C(=O)N[C@@H](CC(C)C)C(=O)N[C@@H](CCCCN)C(=O)N[C@H](C(=O)N[C@@H](CC(C)C)C(=O)N[C@H](C(=O)N[C@H](C(=O)NCC(=O)N[C@@H](CC(C)C)C(=O)N1CCC[C@H]1C(=O)N[C@@H](C)C(=O)N[C@@H](CC(C)C)C(=O)N[C@@H](CCCCN)C(=O)N[C@@H](CC(C)C)C(=O)N[C@H](C(=O)N[C@@H](CCCCN)C(=O)O)[C@@H](C)O)[C@@H](C)O)[C@@H](C)O)C(C)C)C(C)C` [CEMA], the MIC against P. AERUGINOSA H309 (+5 mM Mg^++) was 22.4 µg/mL (≈ 7.31 µM); in the assay with P. AERUGINOSA H309 (+80 mM Na^+) it was 5.6 µg/mL (≈ 1.83 µM); in the assay on P. AERUGINOSA H309 (No addition), 2.8 µg/mL (≈ 0.913 µM); against P. aeruginosa (Pseudomonas aeruginosa H103), 8 µg/mL (≈ 2.61 µM); against P. aeruginosa (Pseudomonas aeruginosa K799) it was 2.8 µg/mL (≈ 0.913 µM); in the assay with P. aeruginosa (strain H187, Parent of H188), 2.8 µg/mL (≈ 0.913 µM). The MIC against P. aeruginosa (setting [3]) was 1.4 µg/mL (≈ 0.457 µM); with P. aeruginosa (strain H309, Wildtype), 2.8 µg/mL (≈ 0.913 µM); against S. aureus (setting [4]) it was > 5.6 µg/mL; in the assay with S. aureus (setting [5]) it was > 5.6 µg/mL. Also, in assay [1], the “activity in opening up the membrane to NPN” value is “equally active”. In addition, the “I50, Value in μg/ml” value in assay [2] amounted to 1.15 ± 0.09 µg/mL. Moreover, the IC50 in assay [2] (read-out: I50, Value in μM) was 0.37 ± 0.03 µM.

Take polymyxin B: the MIC in the assay with P. AERUGINOSA H309 (+5 mM Mg^++) turned out to be 1 µg/mL; against P. AERUGINOSA H309 (+80 mM Na^+) it was 0.5 µg/mL; against P. AERUGINOSA H309 (No addition) it was 0.5 µg/mL; with P. aeruginosa (strain H187, Parent of H188), 0.5 µg/mL; against P. aeruginosa (setting [3]), 0.06 µg/mL; against P. aeruginosa (strain H309, Wildtype), 0.5 µg/mL. For the same compound, the MIC against S. aureus (setting [4]) and against S. aureus (setting [5]) was > 8 µg/mL in each case. Further, in assay [1], the “activity in opening up the membrane to NPN” value was “equally active”. Besides, the “I50, Value in μg/ml” value in assay [2] was determined as 3.7 ± 1.20 µg/mL.

For the origin of these results see patent publication US5688767A, “Treatment of endotoxin-associated disorders with cationic peptides” (priority 1996, dated 1997).
